{"source": "patent US20090076140A1", "about": "“PHARMACEUTICAL COMPOSITIONS CONTAINING SULPHONIC ACID DERIVATIVES” (ITALFARMACO, S. A., priority 2003, published 2009)", "key": {"[1]": {"system": "quiescent fibroblasts (Balb/c 3T3)", "experiment": "toxicity analysis for quiescent fibroblasts (culture in the absence of aFGF)", "type": "cell-based", "conditions": "for toxicity for quiescent fibroblasts: within the concentration range tested / in which aFGF mitogenic activity is inhibited"}, "aFGF": {"target": "aFGF (Homo sapiens, UniProt P05230)", "sequence (P05230 16-155 limits assumed)": "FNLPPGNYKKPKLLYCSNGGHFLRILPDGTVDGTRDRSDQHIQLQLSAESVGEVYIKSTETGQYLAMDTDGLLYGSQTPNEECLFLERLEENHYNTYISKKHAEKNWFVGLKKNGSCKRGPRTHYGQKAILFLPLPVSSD", "experiment": "aFGF-induced mitogenesis inhibition test on fibroblasts in culture", "type": "cell-based", "parameters": "the aFGF of 139 amino acid residues", "conditions": "for aFGF-induced mitogenic activity inhibition (in words): Balb/c 3T3 fibroblasts, 60 hours, MIHS 20 μg/mL, aFGF 0.32 ng/mL"}}, "note": "“Also recorded” adds a separate entry of the source.", "data": [{"smiles": "NCc1ccc(S(=O)(=O)[O-])cc1.[Na+]", "note": "[Compound C-21, sodium 4-(aminomethyl)benzenesulfonate]", "values": [{"measurement": "mitogenesis inductor / tumorigenic effect on quiescent fibroblasts in the absence of aFGF", "setting": "[1]", "result": "certain tumorigenic effect"}]}, {"smiles": "O=C(Nc1cccc2ccc(S(=O)(=O)[O-])cc12)c1ccccc1.[Na+]", "note": "[Compound C-16, sodium 8-benzoylamino-2-naphthalenesulfonate]", "values": [{"measurement": "toxicity for quiescent fibroblasts", "setting": "[1]", "result": "innocuous"}, {"measurement": "aFGF-induced mitogenic activity inhibition (in words)", "setting": "aFGF", "result": "aFGF-induced mitogenic activity inhibitors"}]}, {"smiles": "Nc1ccc(S(=O)(=O)[O-])cc1.[Na+]", "note": "[Compound C-20, sodium 4-aminobenzenesulfonate]", "values": [{"measurement": "toxicity for quiescent fibroblasts", "setting": "[1]", "result": "innocuous"}, {"measurement": "aFGF-induced mitogenic activity inhibition (in words)", "setting": "aFGF", "result": "little aFGF-induced mitogenesis inhibitory activity"}]}, {"smiles": "Nc1c(O)cc(S(=O)(=O)[O-])c2ccccc12.[Na+]", "note": "[Compound C-7, sodium 4-amino-3-hydroxy-1-naphthalenesulfonate]", "values": [{"measurement": "proliferation of quiescent fibroblasts cultured in the absence of aFGF", "setting": "[1]; at concentrations exceeding 0.2 mM", "result": "significantly increases"}, {"measurement": "toxicity for quiescent fibroblasts", "setting": "[1]", "result": "certain toxic effect"}, {"measurement": "aFGF-induced mitogenic activity inhibition (in words)", "setting": "aFGF", "result": "aFGF-induced mitogenic activity inhibitors; also recorded: best aFGF-induced mitogenic activity inhibitory activity"}, {"measurement": "IC50 rank among the tested compounds", "setting": "aFGF; aFGF-induced mitogenesis", "result": "lowest IC50"}]}, {"smiles": "CC(=O)Nc1ccc2c(O)cc(S(=O)(=O)[O-])cc2c1.[Na+]", "note": "[Compound C-19, sodium 7-acetylamino-4-hydroxy-2-naphthalenesulfonate]", "values": [{"measurement": "mitogenesis inductor / tumorigenic effect on quiescent fibroblasts in the absence of aFGF", "setting": "[1]", "result": "certain tumorigenic effect"}]}, {"smiles": "Nc1cccc2ccc(S(=O)(=O)[O-])cc12.[Na+]", "note": "[Compound C-14, sodium 8-amino-2-naphthalenesulfonate]", "values": [{"measurement": "toxicity for quiescent fibroblasts", "setting": "[1]", "result": "certain toxic effect"}, {"measurement": "aFGF-induced mitogenic activity inhibition (in words)", "setting": "aFGF", "result": "aFGF-induced mitogenic activity inhibitors"}]}, {"smiles": "O=S(=O)([O-])c1cccc2cccnc12.[Na+]", "note": "[Compound C-24, sodium 8-quinolinesulfonate]", "values": [{"measurement": "toxicity for quiescent fibroblasts", "setting": "[1]", "result": "innocuous"}, {"measurement": "aFGF-induced mitogenic activity inhibition (in words)", "setting": "aFGF", "result": "little aFGF-induced mitogenesis inhibitory activity"}]}, {"smiles": "CN(C)c1cccc2c(S(=O)(=O)[O-])cccc12.[Na+]", "note": "[Compound C-6, sodium 5-dimethylamino-1-naphthalenesulfonate]", "values": [{"measurement": "toxicity for quiescent fibroblasts", "setting": "[1]", "result": "certain toxic effect"}, {"measurement": "aFGF-induced mitogenic activity inhibition (in words)", "setting": "aFGF", "result": "aFGF-induced mitogenic activity inhibitors"}]}, {"smiles": "Nc1ccc(S(=O)(=O)[O-])c2ccccc12.[Na+]", "note": "[Compound C-3, sodium 4-amino-1-naphthalenesulfonate]", "values": [{"measurement": "toxicity for quiescent fibroblasts", "setting": "[1]", "result": "not toxic"}, {"measurement": "aFGF-induced mitogenic activity inhibition (in words)", "setting": "aFGF", "result": "low aFGF-induced mitogenesis inhibitory activity"}]}, {"smiles": "CN(C)Cc1cc2cc(S(=O)(=O)O)ccc2[nH]1", "note": "[Compound C-25, 2-[(dimethylamino)methyl]-1H-indole-5-sulfonic acid]", "values": [{"measurement": "mitogenesis inductor / tumorigenic effect on quiescent fibroblasts in the absence of aFGF", "setting": "[1]", "result": "certain tumorigenic effect"}]}, {"smiles": "O=C(O)c1ccccc1C(=O)Nc1cccc2cc(S(=O)(=O)O)ccc12.[Na]", "note": "[Compound C-12, sodium 2-{[(6-sulfo-1-naphthyl)amino]carbonyl}benzoic acid]", "values": [{"measurement": "mitogenesis inductor / tumorigenic effect on quiescent fibroblasts in the absence of aFGF", "setting": "[1]", "result": "high mitogenesis inductor activity"}, {"measurement": "aFGF-induced mitogenic activity inhibition (in words)", "setting": "aFGF", "result": "effective aFGF-induced mitogenesis activity inhibitors"}]}, {"smiles": "O=C(Nc1ccc(S(=O)(=O)[O-])c2ccccc12)c1ccccc1.[Na+]", "note": "[Compound C-5, sodium 4-benzoylamino-1-naphthalenesulfonate]", "values": [{"measurement": "toxicity for quiescent fibroblasts", "setting": "[1]", "result": "not toxic"}, {"measurement": "aFGF-induced mitogenic activity inhibition (in words)", "setting": "aFGF", "result": "low aFGF-induced mitogenesis inhibitory activity"}]}, {"smiles": "O=C(Nc1cccc2cc(S(=O)(=O)[O-])ccc12)c1ccccc1.[Na+]", "note": "[Compound C-11, sodium 5-benzoylamino-2-naphthalenesulfonate]", "values": [{"measurement": "aFGF-induced mitogenic activity inhibition (in words)", "setting": "aFGF", "result": "aFGF-induced mitogenic activity inhibitors"}, {"measurement": "aFGF-induced mitogenic inhibitory activity compared between compounds (stereochemical guidelines)", "setting": "aFGF; C-9 and C-17 vs. C-14 and C-18, C-10, C-11, C-13 vs. C-9, 2-NMS vs 1-NMS series", "result": "significant reduction"}]}, {"smiles": "Nc1ccc2c(O)cc(S(=O)(=O)[O-])cc2c1.[Na+]", "note": "[Compound C-18, sodium 7-amino-4-hydroxy-2-naphthalenesulfonate]", "values": [{"measurement": "aFGF-induced mitogenic activity inhibition (in words)", "setting": "aFGF", "result": "aFGF-induced mitogenic activity inhibitors"}]}]}
